The assay has as its target T1, FAP on CAFs (Homo sapiens, UniProt Q12884).
T1 construct: FAP-expressing CAFs were inoculated in a 24-well plate; endogenous in cells; host or cells: cancer-associated fibroblasts (CAFs)
T1 sequence (Q12884 1-760): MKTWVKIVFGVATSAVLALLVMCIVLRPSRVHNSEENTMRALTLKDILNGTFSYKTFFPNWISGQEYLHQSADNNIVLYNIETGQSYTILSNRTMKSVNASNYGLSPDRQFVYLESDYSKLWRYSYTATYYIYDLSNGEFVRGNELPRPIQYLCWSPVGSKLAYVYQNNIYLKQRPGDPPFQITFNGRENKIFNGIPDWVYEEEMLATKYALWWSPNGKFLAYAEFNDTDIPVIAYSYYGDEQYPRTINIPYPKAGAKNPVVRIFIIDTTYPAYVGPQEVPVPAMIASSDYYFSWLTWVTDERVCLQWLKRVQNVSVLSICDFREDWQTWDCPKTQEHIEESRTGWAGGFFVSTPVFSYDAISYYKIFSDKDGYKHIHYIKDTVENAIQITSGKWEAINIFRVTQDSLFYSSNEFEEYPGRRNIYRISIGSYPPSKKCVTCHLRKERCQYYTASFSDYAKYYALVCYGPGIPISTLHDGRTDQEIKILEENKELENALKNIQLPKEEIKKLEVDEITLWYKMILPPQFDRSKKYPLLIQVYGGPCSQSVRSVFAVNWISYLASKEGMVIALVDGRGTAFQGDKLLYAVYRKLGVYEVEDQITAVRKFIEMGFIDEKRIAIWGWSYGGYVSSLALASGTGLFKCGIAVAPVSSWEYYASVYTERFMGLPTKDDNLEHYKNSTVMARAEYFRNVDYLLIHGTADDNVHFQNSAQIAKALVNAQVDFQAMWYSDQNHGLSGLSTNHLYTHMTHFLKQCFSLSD
In words: FAP binding assay (radioligand competition) on CAFs. The protocol: FAP-expressing CAFs were inoculated in a 24-well plate and cultivated with a 10% (volume fraction) FBS-containing 1640 medium for 48 h before the experiment until a cell density was about 80% to 90%; the medium was changed to an FBS-free 1640 medium; and the ^68Ga-2PEG(3)-FAPI-dimer, ^68Ga-FAPI-46, or ^68Ga-2PEG(3)-FAPI-dimer+11.3 nmol FAPI-46 (for the blocking experiment) was added to the 24-well plate and incubated, with predetermined intervals of 10 min, 30 min, 60 min, 90 min, and 120 min. The FAP binding assay was conducted after a radiolabeled compound and a corresponding unlabeled FAPI derivative (1.27×10^−4-10^−13 mol/L of 2PEG(3)-FAPI-dimer was added to ^68Ga-2PEG(3)-FAPI-dimer; and 2.83×10^−4-1×10^−13 mol/L of FAPI-46 was added to ^68Ga-FAPI-46) were co-incubated for 60 min. A half-inhibitory concentration (IC50s) was calculated by using GraphPad Prism to fit data through nonlinear regression. In each step of the experiment, cells were washed twice with 1 mL of PBS. Finally, CAFs were lysed with 0.5 mL of a 1 mol/L NaOH aqueous solution to conduct radioactive counting with a gamma counter. 3 parallel replicates were set for each experiment.

The structures appear in SMILES notation.

`CN(CCCN1CCN(C(=O)COCCOCCOCCNC(=O)CCC(=O)N[C@@H](CCCCNC(=O)CN2CCN(CC(=O)O)CCN(CC(=O)O)CCN(CC(=O)O)CC2)C(=O)NCCOCCOCCOCC(=O)N2CCN(CCCN(C)c3ccc4nccc(C(=O)NCC(=O)N5CC(F)(F)C[C@H]5C#N)c4c3)CC2)CC1)c1ccc2nccc(C(=O)NCC(=O)N3CC(F)(F)C[C@H]3C#N)c2c1` [2PEG(3)-FAPI-dimer]: the “IC50 value compared with FAPI-46” value was “similar”.
